One substance from US12076342B2, “Method for generating progenitor t cells from stem and/or progenitor cells and use of same” (THE GOVERNING COUNCIL OF THE UNIVERSITY OF TORONTO, priority 2016, dated 2024) can be followed below.

In experiment [1] the test system is double negative (DN; CD4− CD8−) thymocytes. The experiment can be described thus: DL4-Fc ligand binding to thymocytes. The method, then: Progenitor T cell development in the thymus is characterized by four sequential stages commonly referred to as DN1, DN2, DN3 and DP (DN=double negative and DP=double positive for CD4 and CD8 expression). An ideal defined progenitor T cell differentiation assay should aim to support the expansion of DN3 T cells that are exclusively committed to the T lymphoid lineage. […] Conventional in vitro T cell differentiation is carried out on an OP9 stromal feeder layer in serum-containing medium. The obvious first step in developing a defined assay for T cell differentiation is to establish conditions that eliminate the requirements for both serum and feeders. To replace the OP9 feeder layer, DL4-Fc protein was generated and the purity and functionality of the ligand to bind DN T cells and not DP T cells was verified, as these cell types differentially express the Notch-1 receptor (FIGS. 1a-c). […] Cultures were re-fed after four days and analyzed for progenitor T cell surface markers after seven days (FIG. 2a). Parallel cultures were carried out on untreated surfaces (negative control) and OP9-DL4 stromal co-culture (positive control based on which SCF, Flt3L and IL-7 supplementation concentrations were determined^9). […] The level of lineage skewing to non-T cell fates was also quantified in the absence of Notch ligand in order to assess the default cell differentiation supported by all medium types.

Experiment [2] deals with sorted sca1+ckit+ fetal-liver HSPCs. The experiment can be described thus: Defined T cell differentiation assay on adsorbed ligand, flow cytometry. The class given is cell-based, mouse. The method, then:
FIG. 2a: Schematic for 2D coated DL4 assay, in which sorted E13.5 sca1+ckit+ fetal-liver HSPCs are seeded on coated DL4 ligand in standard 96-well flat bottom plates at 1000 cells/well density in 200 μl test media containing cytokines 25 ng/mL SCF, 5 ng/mL Flt3L and 1 ng/mL IL7; cells are re-fed on day 4 with fresh media containing cytokines; on day 7, cells are assayed for surface marker expression using flow cytometry.
Commercially available DL4-Fc was purchased and used for experiments from Sino Biologicals (Cedarlane Labs, Burlington, Ontario, Canada) or manufactured in-house as described below. DL4-Fc was diluted in chilled phosphate-buffered saline (PBS) at 10 μg/mL or […] and 50 μL/well was coated in standard tissue-culture 96-well plates overnight at 4° C. Wells were washed once with PBS prior to seeding cells to remove any unbound ligand from the wells. For certain experiments, wells were also coated overnight with 50 μL/well PBS containing DL4-Fc and VCAM-1-Fc (R&D) or fibronectin (Sigma) at concentrations described herein.
Sorted sca1+ckit+ HSPCs were cultured at 1000 cells/well (corresponding to 3.1×10^3 cells/cm^2) in DL4-coated 96-well plates in serum-free Iscove modified Dulbecco medium (Gibco, Rockville, MD) with 20% bovine serum albumin, insulin, and transferrin serum substitute (BIT; Stemcell Technologies), 1% GlutaMAX™ (Gibco) and 1 μg/mL low-density lipoproteins (Calbiochem, La Jolla, CA) [IMDM+BIT]. For positive control cultures, OP9 serum medium was used, composed of αMEM medium (Gibco) and 16% FBS (Hyclone™, GE Health). Serum-free αMEM+BIT medium was prepared exactly as IMDM+BIT medium except using αMEM (Gibco) as the base medium. OP9 serum medium, αMEM+BIT or IMDM+BIT serum free medium was added at 200 μL/well supplemented with 25 ng/mL Stem Cell Factor (SCF; R&D Systems, Minneapolis, MN), 5 ng/mL FMS-like Tyrosine Kinase 3 Ligand (Flt3L; R&D Systems) and 1 ng/mL Interleukin-7 (IL-7; R&D Systems) with a 50% medium exchange step at day 4 containing 2-fold concentrated cytokines as described previously^9. Design of Experiment (DOE) in silico modeling was performed using Design-Expert® (v10) using response surface method to investigate the combinatorial desirability of different concentrations of SCF, Flt3L and IL-7 for maximizing DN3 T-cell yield and minimizing the volume of IMDM+BIT medium. After DOE optimization, IMDM+BIT serum-free medium was added at 50 μL/well supplemented with 50 ng/mL SCF (R&D Systems), 10 ng/mL Flt3L (R&D Systems) and 10 ng/mL IL-7 (R&D Systems) unless described otherwise in the text with no medium exchange for the length of the assay. For the candidate factor screening in serum-free IMDM+BIT medium, the following proteins or small molecules were used at the concentrations listed: JAK inhibitor I (50 nM; EMD Millipore), IL-11 (10, 50, and 100 ng/mL; R&D Systems), IL-6 (10, 50, and 100 ng/mL; R&D Systems), IL-6R (100 ng/mL; R&D Systems), Ccl25 (1.5 μg/mL; R&D Systems), IL-7 (50, 100, and 200 ng/mL; R&D Systems), SDF1α (Cxcl12; 200 ng/mL; R&D Systems), and Leukemia Inhibitory Factor (LIF; 0.1, 1, and 10 ng/mL; EMD Millipore).
Surface marker staining was performed with conjugated rat anti-mouse antibodies (BD Biosciences, San Jose, CA, Table 1). All samples were analyzed on a FACSCanto™ or FACS LSRFortessa™ flow cytometer (BD Biosciences). At day 7 of culture, cells were lifted off the plate with multiple HF rinses, stained at 1:400 dilution with antibodies against CD45, CD25, CD44, CD90, CD11 b and CD19 for 20 minutes on ice. Human progenitor T-cells were stained at 1:100 dilution with antibodies against CD34, CD7, CD5 and CD45RA. Integrin expression was analyzed using antibodies against α4, β1, and β7 integrin subunits on Sca-1+cKit+ mouse HSPCs and CD34+ human umbilical blood cells. […]

For experiment [3], the system named is human umbilical cord blood-derived CD34+ HSPCs. The experiment can be described thus: Human CD34+ HSPC progenitor T cell differentiation on coated plates. The note with it: serum-free IMDM+BIT. The class given is cell-based. The method, then: For human HSPC culture, umbilical cord blood samples were collected from consenting donors according to ethically approved procedures at Mount Sinai Hospital. CD34+ cells were isolated from the red blood cell (RBC)-lysed cord blood fraction using the EasySep™ Human CD34 Positive Selection Kit (Stemcell Technologies) according to the manufacturer's instructions. Flow cytometry was performed after every enrichment to ensure CD34 frequencies were greater than 95%. CD34+ HSPCs were cultured for 14 days on DL4 and VCAM-1 coated 96-well plates at higher seeding densities of 12,500 HSPCs/cm^2 (corresponding to 4000 cells/well). One complete medium exchange was performed at day 7 of culture and cells were returned to the same DL4 and VCAM-1 coated plates. For certain experiments, DL4-Fc was coated alone or with RetroNectin® (Takara Shuzo) or fibronectin (Sigma Aldrich) as described in the text. CD34+ cells were cultured in serum-free Iscove modified Dulbecco medium (Gibco) with 20% bovine serum albumin, insulin, and transferrin serum substitute (BIT; Stemcell Technologies), 1% GlutaMAX™ (Gibco) and 1 μg/mL low-density lipoproteins (Calbiochem). The medium was added at 50 μL/well supplemented with 100 ng/mL SCF (R&D Systems, Minneapolis, MN), 100 ng/mL Flt3L (R&D Systems), 100 ng/mL Tpo (R&D Systems) and 100 ng/mL IL-7 (R&D Systems).
Surface marker staining was performed with conjugated rat anti-mouse antibodies (BD Biosciences, San Jose, CA, Table 1). All samples were analyzed on a FACSCanto™ or FACS LSRFortessa™ flow cytometer (BD Biosciences). At day 7 of culture, cells were lifted off the plate with multiple HF rinses, stained at 1:400 dilution with antibodies against CD45, CD25, CD44, CD90, CD11 b and CD19 for 20 minutes on ice. […] Integrin expression was analyzed using antibodies against α4, β1, and β7 integrin subunits on Sca-1+cKit+ mouse HSPCs and CD34+ human umbilical blood cells. […] Flow data was analyzed and batch processed using FlowJo® software and further analyzed in Python (version 2.7.10).

Turning to “DL4: Notch ligand Delta-like-4 extracellular domain fused to the Fc region of human IgG1”, the “binding to DN vs. DP thymocytes” value in experiment [1] was “binding double negative (DN; CD4− CD8−) and not double positive (DP, CD4+CD8+) thymocytes”. Further, in experiment [2] (20 μg/mL immobilized, no soluble ligand, day 7), the “DN3 frequency at 20 μg/mL immobilized ligand” value is on record as “generated DN3 cells at equivalent frequencies as in the 10 μg/mL coated DL4 control”. Moreover, in experiment [2] (IMDM+BIT serum-free medium, 7 days of culture), the “minimum concentration of adsorbed DL4 that supported DN3 cell generation” value stood at 7.5 µg/mL. Besides, the “generation of CD7+CD34+ cells” value in experiment [3] (DL4 alone) is “can generate CD7+CD34+ cells”. Also, the “generation of later stage progenitor T cells from CD34+ HSPCs” value in experiment [3] (9 or 14 days, matrix proteins in conjunction with DL4) was “insufficient to drive these progenitor cells to later stages of T cell development”.
